According to US20100137344A1, “INDUCTION OF ANALGESIA IN NEUROPATHIC PAIN” (University Court of the University of Edinburgh, priority 2006, published 2010):

Columns and labels:
Format in all cases: in vivo, rat
naïve rats = experiment: Intrathecal application in naïve rats, behavioural reflex testing (PWL, PWT); settings: naïve animals, cinnamaldehyde 75 nmol, allicin 25 nmol, diallyl disulphide 50 mmol
Description: (§1) Thermal sensitivity was assessed by measuring paw withdrawal latency (PWL, s) in response to a noxious thermal stimulus (Hargreaves' thermal stimulator, Linton Instrumentation, Diss, UK) directed to the hindpaw mid-plantar glabrous surface. Mechanical sensitivity was recorded as the paw withdrawal threshold (PWT, mN/mm^2) to calibrated von Frey filaments (Stoelting, Ill., US), as previously described^[39]. Sensitivity to noxious cold was assessed by placing animals in a waterbath with an aluminium floor containing 1 cm deep 4° C. water and counting the time the paw was held suspended over a 20 s period.
(§2) The following drugs were applied intrathecally in a 50 μl volume of saline-based vehicle at 37° C.: icilin (2.5-200 μM in saline with 0.2% dimethylformamide, DMF), LY 341495 (100 μM in saline), UBP 1112 (200 μM in saline), 2R,4R-APDC ((2R, 4R)-4-aminopyrrolidine-2,4-dicarboxylate), 300 μM in saline), ACPT-III ((1R,3R,4S)-1-aminocyclopentane-1,3,4-tricarboxylic acid), 3 mM in saline), AP-4, ((L-(1)-2-amino-4-phosphonobutyric acid), 3 mM in saline), naloxone (0.5 mM in saline), NMDA (75 μM in saline) and ACPC (1-aminocyclopropanecarboxylic acid, 15 μM in saline) (Tocris Cookson, Bristol, UK), (−)-menthol (1R,2S,5R-(−)-menthol, 4 mM in saline), cinnamaldehyde (1.5 mM in saline) and Ruthenium Red (5 μM in saline) (Sigma-Aldrich Co. Ltd, UK) and allicin (0.5 mM in saline with 0.5% DMF) and diallyl disulphide (DADS, 1 mM in saline with 0.5% DMF) (LKT Laboratories Inc., St Paul, Minn., USA). Drugs were injected into the L5/6 intrathecal space under brief halothane anaesthesia, using a 25-gauge needle microsyringe (BD Biosciences, Oxford, UK), as described previously^[39] in animals that were at peak levels of behavioural sensitisation. Behavioural reflex testing commenced 15 min following injection to allow recovery from anaesthesia^[40,41,42] and continued every 5 min thereafter until readings returned to baseline levels (n=6 in each case). We, and others^[40,41,42] find complete recovery from anaesthetic by 15 minutes. All appropriate controls were carried out to eliminate the possibility of effects due to vehicle or to injection procedure.
(§3) The TRPM8 channel activators, icilin and (−)-menthol were tested in CCI and naïve animals. The effects of icilin were additionally assessed in animals with CFA-induced inflammation or with lysolecithin-induced demyelination. Icilin was also co-administered with the μ-opioid receptor antagonist naloxone, the Group II metabotropic glutamate receptor (mGluR) antagonist, LY 341495, or the Group III mGluR antagonist, UBP 1112. The effects of these antagonists alone as well as effects of the Group II mGluR agonist, 2R,4R-APDC and the Group III mGluR agonists, ACPT-III and AP-4, were assessed in CCI animals. The TRPA1 channel activator, cinnamaldehyde, alone and with icilin, was tested in CCI animals and in naïve animals. Further TRPA1 channel activators, allicin and diallyl disulphide were assessed in naïve animals. Both icilin and cinnamaldehyde effects in CCI animals were also investigated in the additional presence of Ruthenium Red.

[1] = test system: rats with chronic constriction injury (CCI) to sciatic nerve; experiment: Intrathecal application in CCI rats, behavioural reflex testing (PWL, PWT); settings: for effect on contralateral responses / reversal of mechanical reflex sensitisation ipsilateral to CCI / reversal of thermal reflex sensitisation ipsilateral to CCI: 2R,4R-APDC 15 nmol, ACPT-III and AP-4 150 nmol each; for reversal of mechanical reflex sensitisation ipsilateral to CCI / reversal of thermal reflex sensitisation ipsilateral to CCI: 15-30 min post-injection
Description: (§4) Pain models were generated under halothane anaesthesia (Zeneca, Cheshire, UK). For the chronic constriction injury (CCI) model of neuropathic pain, four ligatures were tied loosely to constrict the sciatic nerve at mid-thigh level (as described previously^[39]). An inflammatory pain model was generated by injecting 100 μl of Complete Freund's Adjuvant (CFA, Sigma-Aldrich Ltd) into the ventral surface of the right hindpaw^[39]. A model of peripheral demyelination-induced pain was produced by focal application of lysolecithin to the sciatic nerve^[40]. Peak behavioural sensitisation was observed post-surgically between days 10-16 for CCI, 1-3 for CFA, and 7-14 for lysolecithin, when pharmacological and electrophysiological experiments and tissue removal were conducted.
as §1, §2, §3

[2] = test system: rats with chronic constriction injury (CCI) to sciatic nerve; experiment: Topical application to paws of CCI rats, behavioural reflex testing (thermal PWL, mechanical PWT); settings: for reversal of sensitised responses: topical, (−)-menthol 4 mM, isomenthol and (+)-menthol 8 mM and 16 mM; for analgesia, thermal hyperalgesia (Hargreaves' test): 30 μM topical, CCI model
Description: as §4, §1
Icilin was applied at concentrations of 2.5-500 μM (in water with 0.2% DMF), by placing CCI or naïve rats unrestrained for 5 min in a 1 cm deep waterbath (sufficient to cover paws), which was thermostatically controlled to a temperature of 30° C., or by very lightly anaesthetising rats and immersing hindpaws in small tubes containing 5 ml icilin (500 μM-5 mM, with a vehicle of 45% dimethylformamide in 0.2% aqueous Tween 80) for 5 min, followed by sensory testing for 60-80 mins. The effects of (−)-menthol and its stereoisomers isomenthol (1S,2R,5R-menthol,) and (+)-menthol (1S,2R,5S(+)-menthol) (4-16 mM in 80% ethanol) were also assessed. Relevant vehicles were always assessed in similar experiments. As a contrast, the effect of cinnamaldehyde (1.5 mM in water) and the effect of cinnamaldehyde with additional icilin (80 μM in water with 0.2% DMF) were assessed in naïve animals. The effects of icilin (80 μM) were further assessed in CCI animals that had undergone antisense and mis-sense treatment for knockdown of TRPM8 or immediately following intrathecal injection of either LY 341495 or UBP 1112. […] The effects of brief paw immersion at different temperatures (10-22° C. for 5 min) on CCI rats were assessed by mechanical testing. The effects of intrathecal LY 341495 or UBP 1112 on the reversal of ipsilateral sensitisation in CCI following a 16° C. cool challenge for 5 min were measured. Reflex testing commenced 5 minutes following challenge, unless animals had been anaesthetised, in which case 15 minutes was allowed for recovery. Six replicate animals were tested in all pharmacological experiments.
Antisense and mis-sense oligonucleotides were 22-mers with phosphorothioate bonds at the last two positions at 5′ and 3′ ends (MWG Biotech, Ebersberg, Germany). Antisense extended from base −10 to base +12 relative to the start of the open reading frame for the rat TRPM8 gene: 5′ C*T*CGAAGGACATCTTGCCGT*G*G 3′, where * represents phosphorothioate linkages. Mis-sense was designed with 4 inversions of C/G or A/T as appropriate at residues 3, 11, 14 and 22, preserving overall G/C content. BLAST searches of both oligonucleotides indicated no significant complementarity to any known gene sequence. 14-day or 7-day osmotic minipumps (for CCI experiments or naïve electrophysiology experiments respectively—Alzet Minipump, models 2002, 2001; Charles River, UK) containing oligonucleotides (1 μg/μl in sterile saline) were connected to canulae inserted under the dura of the spinal cord to level L5/6 and produced a predicted infusion rate of 0.5 μl/h. […]

[3] = test system: saphenous nerve afferents; experiment: Saphenous nerve afferent recordings after topical application to receptive field; settings: resiniferatoxin 1 mM; for firing frequency after drug / increase in firing frequency: topical icilin 200 μM
Excerpt: Antisense and mis-sense oligonucleotides were 22-mers with phosphorothioate bonds at the last two positions at 5′ and 3′ ends (MWG Biotech, Ebersberg, Germany). Antisense extended from base −10 to base +12 relative to the start of the open reading frame for the rat TRPM8 gene: 5′ C*T*CGAAGGACATCTTGCCGT*G*G 3′, where * represents phosphorothioate linkages. Mis-sense was designed with 4 inversions of C/G or A/T as appropriate at residues 3, 11, 14 and 22, preserving overall G/C content. BLAST searches of both oligonucleotides indicated no significant complementarity to any known gene sequence. 14-day or 7-day osmotic minipumps (for CCI experiments or naïve electrophysiology experiments respectively—Alzet Minipump, models 2002, 2001; Charles River, UK) containing oligonucleotides (1 μg/μl in sterile saline) were connected to canulae inserted under the dura of the spinal cord to level L5/6 and produced a predicted infusion rate of 0.5 μl/h. CCI surgery was performed at the same time as minipump implantation. Sensory tests were carried out to assess the time-course of behavioural sensitisation in animals which had also undergone a CCI injury. Icilin was applied topically rather than intrathecally so as to prevent any interference with the infusion canula. Peripheral nerve recordings and tissue harvesting were carried out after an interval of 4-5 days to allow time for protein knockdown.
Peripheral: Recordings of saphenous (sensory) nerve were made in naïve animals (n=7) to assess the effects of topical icilin on primary afferents. In addition, recordings were carried out on animals which had undergone TRPM8 antisense or mis-sense treatment beginning 4-5 days previously. Rats were anaesthetised (with 0.6 ml 25% urethane/100 g, i.p.) and the saphenous nerve was exposed and dissected from its associated vein and artery. Further dissection under liquid paraffin enabled identification of afferent preparations comprising a small number of fibres. The conduction velocity of single identified afferent fibres was determined using bipolar electrodes and the peripheral stimulus technique^[43]. Following isolation of preparations, icilin (200 μM in water with 0.2% DMF), (−)-menthol (4 mM in 25% ethanol) resiniferatoxin (1 mM in ethanol) or vehicle alone were applied to the hindlimb receptive fields and neuronal responses recorded using the Chart programme (version 3.6). Central: Recordings of spinal dorsal horn neurons were made in CCI animals, as described previously^[39]. Following halothane induction, the jugular vein and trachea were canulated and intravenous anaesthetic delivered: α-chloralose ([…], Fisher) and urethane ([…], Sigma), with small supplementary doses of α-chloralose as required throughout the experiment. Core body temperature was maintained at 37-38° C. by means of a thermostatically controlled heated blanket. The animal was placed in a stereotaxic frame, and the thoracolumbar spinal column was supported using three pairs of swan-necked clamps. A laminectomy was performed at L2-L5, and agar (2% in saline at 37° C.) was delivered over exposed cord to increase mechanical stability. Above the recording region the agar and spinal cord dura were removed and liquid paraffin poured into the pool. Extracellular recordings were made from single multireceptive neurons in laminae I-IV through the centre barrel of a seven-barrelled glass microelectrode filled with 4M NaCl (tip-diameter […], DC resistance 5-8 MΩ). The receptive fields of hair-follicle innervated neurons on the distal hindlimb were identified by an innocuous brush stimulus^[39]. Icilin (200 μM in water with 0.2% DMF) was applied peripherally to the receptive field of individual recorded neurons, and the effect on neuronal response to a rotating brush was recorded and analysed using Spike2 programme (Version 3.2, CED). […]

[4] = mis-sense-treated animals, (−)-menthol 4 mM

C=CCS[S+]([O-])CC=C (centres unmarked) [allicin]
reduction in PWL (naïve rats): 33.2±5.9% | reduction in PWT (naïve rats): 20.7±8.2%

N[C@@H](CCP(=O)(O)O)C(=O)O [AP-4, L-(1)-2-amino-4-phosphonobutyric acid]
effect on contralateral responses ([1]; intrathecal): no effects contralaterally | reversal of mechanical reflex sensitisation ipsilateral to CCI ([1]; intrathecal): 60.7±8.0% | reversal of thermal reflex sensitisation ipsilateral to CCI ([1]; intrathecal): 60.8±6.7%

N[C@@]1(C(=O)O)CN[C@@H](C(=O)O)C1 [2R,4R-APDC, (2R, 4R)-4-aminopyrrolidine-2,4-dicarboxylate]
effect on contralateral responses ([1]; intrathecal): no effect on contralateral responses | reversal of mechanical reflex sensitisation ipsilateral to CCI ([1]; intrathecal): 56.0±10.9% | reversal of thermal reflex sensitisation ipsilateral to CCI ([1]; intrathecal): 72.1±6.4%

CC1CC[C@H](C(C)C)[C@@H](O)C1 (single isomer, unassigned; (+)) [(+)-menthol]
reversal of sensitised responses [2]: produced reversal of sensitised responses

N.N.N.N.N.N.N.N.N.N.N.N.N.N.[Cl-].[Cl-].[Cl-].[Cl-].[Cl-].[Cl-].[O-2].[O-2].[Ru+3].[Ru+3].[Ru+4] [Ruthenium Red]
effect on analgesic effect of intrathecally-injected icilin ([1]; Ruthenium Red 0.25 nmol with icilin 10 nmol): unaffected | effect on sensitising effects of cinnamaldehyde ([1]; co-injection of Ruthenium Red 0.25 nmol with cinnamaldehyde 75 nmol, intrathecal): prevented

COc1ccc(NC(=O)C2CC(C)CCC2C(C)C)cc1 (centres unmarked) [WS-12, 2-isopropyl-5-methyl-cyclohexanecarboxylic acid (4-methoxyphenyl)amide]
analgesia, thermal hyperalgesia (Hargreaves' test) [2]: causes analgesia

CC(C)[C@H]1CC[C@@H](C)C[C@@H]1O [isomenthol, 1S,2R,5R-menthol]
reversal of sensitised responses [2]: produced reversal of sensitised responses

COc1ccccc1N1CC=C(c2cccc([N+](=O)[O-])c2)NC1=O [methoxy-icilin, 1-(2′-methoxyphenyl)-4-(3″-nitrophenyl)-1,2,3,6-tetrahydropyrimidin-2-one]
analgesia, thermal hyperalgesia (Hargreaves' test) [2]: causes analgesia

C=C(C)[C@]12C[C@@H](C)[C@@]34O[C@](Cc5ccccc5)(O[C@@H]1[C@@H]3C=C(COC(=O)Cc1ccc(O)c(OC)c1)C[C@]1(O)C(=O)C(C)=C[C@@H]41)O2 [resiniferatoxin]
afferents activated out of 28 recorded ([3]; antisense-treated animals): 16 | firing frequency after drug ([3]; antisense-treated animals, (−)-menthol 4 mM): 25.9±1.8 Hz | increase in firing frequency ([3]; antisense-treated animals): 6 fold | firing frequency after drug [3, 4]: 24.8±3.1 Hz | increase in firing frequency [3, 4]: 5 fold

N[C@]1(C(=O)O)C[C@H](C(=O)O)[C@H](C(=O)O)C1 [ACPT-III, (1R,3R,4S)-1-aminocyclopentane-1,3,4-tricarboxylic acid]
effect on contralateral responses ([1]; intrathecal): no effects contralaterally | reversal of mechanical reflex sensitisation ipsilateral to CCI ([1]; intrathecal): 65.7±11.4% | reversal of thermal reflex sensitisation ipsilateral to CCI ([1]; intrathecal): 83.6±6.3%

C=CCN1CC[C@]23c4c5ccc(O)c4O[C@H]2C(=O)CC[C@@]3(O)[C@H]1C5 [naloxone]
effect on icilin analgesia ([1]; naloxone 25 nmol intrathecal co-administration with icilin): had no effect
